Reference: ChEMBL document CHEMBL5375988, “AcGlcAs: A Novel P53-Targeting Arsenical with Potent Cellular Uptake and Cancer Cell Selectivity” (J Med Chem, 2023)
Active and inactive are the calls of the source. No cut-off for these calls is given here.

Columns and labels:
[1] = biological target: T1, PML-RARalpha (Homo sapiens) (UniProt P10276+P29590); assay: Induction of PML/RARalpha degradation in human NB4 cells assessed as downregulation of P2RY2 mRNA expression incubated for 1 hrs followed by replacement with fresh culture medium for 6 hrs by RT-qPCR analysis; format: cell-based; conditions: dose 0.3-3 µM
[2] = test system: NCI-H1299; assay: Upregulation of MDM2 mRNA expression in human NCI-H1299 cells overexpressing p53-V272M mutant at 2 uM pretreated for 1 hr followed by culturing in fresh medium for 8 hrs by RT-qPCR analysis; format: functional, cell-based
[3] = biological target: T1, PML-RARalpha (Homo sapiens); assay: Induction of PML/RARalpha degradation in human NB4 cells assessed as downregulation of FCGR1B mRNA expression incubated for 1 hrs followed by replacement with fresh culture medium for 6 hrs by RT-qPCR analysis; format: cell-based; conditions: dose 0.3-3 µM
[4] = test system: NB-4; assay: Induction of apoptosis in human NB4 cells assessed as early apoptotic cells at 9 uM preincubated for 1 hrs followed by replacement with fresh culture medium and measured after 24 hrs by Annexin V-FITC/7AAD staining based flow cytometry assay (reference value: 2.15%); format: functional
[5] = test system: Cellular tumor antigen p53 (Homo sapiens), P04637 [V272M]; assay: Restoration of p53-V272M mutant transcriptional activity on PUMA promoter in human NCI-H1299 cells at 2.5 to 10 uM pretreated with chlorpromazine for 30 mins followed by compound addition for 10 mins and further incubation in fresh medium for 24 hrs by firefly/renilla based luciferase reporter assay; format: cell-based; conditions: dose 2.5-10 µM
[6] = Drug uptake in human HepG2 cells assessed as arsenic localization in nucleus at 10 uM incubated for 1 hr by ICP-MS analysis; format: ADME, cell-based; conditions: hepg2, 1 h
[7] = test system: NCI-H1299; assay: Upregulation of CDKN1A mRNA expression in human NCI-H1299 cells overexpressing p53-V272M mutant at 2 uM pretreated for 1 hr followed by culturing in fresh medium for 8 hrs by RT-qPCR analysis; format: functional, cell-based
[8] = Plasma stability in human assessed as half life at […] measured upto 120 mins by LC-MS analysis; format: ADME, cell-free
[9] = biological target: T1, PML-RARalpha (Homo sapiens); assay: Induction of PML/RARalpha degradation in human NB4 cells assessed as residual protein level at 9 uM incubated for 1 hrs followed by replacement with fresh culture medium and measured after 16 hrs by Western blot analysis (reference value: 1); format: cell-based
[10] = test system: Cellular tumor antigen p53 (Homo sapiens), P04637 [V272M]; assay: Rescue of p53-V272M mutant transcriptional activity on PUMA promoter in human NCI-H1299 cells at 0.3 to 10 uM pretreated for 10 mins to1 hr followed by replacement with fresh culture media and measured after 24 hrs by firefly/renilla based luciferase reporter assay; format: cell-based; conditions: filed as activator, dose 0.3-10 µM, time 10-60 min
[11] = test system: NB-4; assay: Induction of apoptosis in human NB4 cells assessed as late apoptotic cells at 27 uM preincubated for 1 hrs followed by replacement with fresh culture medium and measured after 24 hrs by Annexin V-FITC/7AAD staining based flow cytometry assay (reference value: 3.71%); format: functional
[12] = Drug uptake in human HepG2 cells assessed as fold increase in arsenic accumulation at 10 uM incubated for 10 mins by ICP-MS analysis; format: ADME, cell-based; conditions: hepg2, 10 min
[13] = test system: HL-60; assay: Upregulation of MDM2 mRNA expression in human HL-60 cells overexpressing p53-V272M mutant at 2 uM pretreated for 1 hr followed by culturing in fresh medium for 8 hrs by RT-qPCR analysis; format: functional, cell-based

T1 sequence (P10276 whole entry, looked up): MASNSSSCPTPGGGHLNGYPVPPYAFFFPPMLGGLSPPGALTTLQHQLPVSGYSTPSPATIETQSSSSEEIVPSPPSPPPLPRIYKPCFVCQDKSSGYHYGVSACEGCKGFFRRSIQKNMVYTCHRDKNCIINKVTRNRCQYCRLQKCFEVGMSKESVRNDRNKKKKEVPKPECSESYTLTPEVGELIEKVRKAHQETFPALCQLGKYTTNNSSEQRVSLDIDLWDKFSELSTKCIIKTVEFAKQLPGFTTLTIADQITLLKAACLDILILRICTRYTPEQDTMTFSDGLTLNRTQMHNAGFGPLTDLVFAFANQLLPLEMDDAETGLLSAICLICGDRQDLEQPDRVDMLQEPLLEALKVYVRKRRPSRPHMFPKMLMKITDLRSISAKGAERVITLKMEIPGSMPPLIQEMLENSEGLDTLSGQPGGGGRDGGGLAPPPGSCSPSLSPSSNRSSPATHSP
T1 sequence (P29590 whole entry, looked up): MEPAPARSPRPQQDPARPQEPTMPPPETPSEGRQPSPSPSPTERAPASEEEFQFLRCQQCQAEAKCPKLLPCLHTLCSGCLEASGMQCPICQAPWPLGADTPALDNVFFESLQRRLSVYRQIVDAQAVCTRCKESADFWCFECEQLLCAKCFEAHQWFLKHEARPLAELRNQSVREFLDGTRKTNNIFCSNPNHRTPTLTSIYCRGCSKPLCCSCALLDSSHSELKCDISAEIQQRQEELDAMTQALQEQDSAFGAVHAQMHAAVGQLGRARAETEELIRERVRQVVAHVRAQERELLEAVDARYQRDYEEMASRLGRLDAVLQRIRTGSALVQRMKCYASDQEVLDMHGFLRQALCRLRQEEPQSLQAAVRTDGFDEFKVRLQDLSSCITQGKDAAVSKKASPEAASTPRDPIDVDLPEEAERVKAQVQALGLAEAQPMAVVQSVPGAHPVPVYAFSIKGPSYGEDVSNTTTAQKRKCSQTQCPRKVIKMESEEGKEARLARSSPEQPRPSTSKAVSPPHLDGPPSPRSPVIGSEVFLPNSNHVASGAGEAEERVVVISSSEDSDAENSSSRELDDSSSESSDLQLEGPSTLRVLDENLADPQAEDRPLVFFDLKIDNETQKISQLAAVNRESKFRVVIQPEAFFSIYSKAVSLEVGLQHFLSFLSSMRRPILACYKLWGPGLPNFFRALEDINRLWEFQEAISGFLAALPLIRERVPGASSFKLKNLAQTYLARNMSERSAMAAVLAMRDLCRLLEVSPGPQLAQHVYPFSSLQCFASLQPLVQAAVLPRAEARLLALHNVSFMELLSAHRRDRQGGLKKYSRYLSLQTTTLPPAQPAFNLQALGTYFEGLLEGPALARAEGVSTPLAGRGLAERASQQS

Which Activity [1] does the source give for `CC(=O)OC[C@H]1O[C@@H](S[As]2SCCS2)[C@H](OC(C)=O)[C@@H](OC(C)=O)[C@@H]1OC(C)=O` here?
The Activity was “Dose-Dependent Effect”.

And the Activity [2]?
Its Activity is “Active”.

And the Activity [3]?
The Activity was “Dose-Dependent Effect”.

What about the Activity [4] of the same molecule?
The Activity was 7.43%.

What about the Activity [5] of the same molecule?
The Activity was “inactive”.

And the Drug uptake [6]?
Its Drug uptake is “Active”.

What about the Activity [7] of the same molecule?
Its Activity is “Active”.

What about the half-life [8] of the same molecule?
Its half-life is 16.1 min.

What about the Activity [9] of the same molecule?
Its Activity is 0.02.

And the Activity [10]?
The Activity was “Active”.

And the Activity [11]?
Its Activity is 29%.

And the “fold change (FC)” value [12]?
Its value is 19.

What about the Activity [13] of the same molecule?
The Activity was “Active”.
